In the case of `CN(c1ccccc1)[C@@H]1C=Cc2ccccc2[C@H]1O`, the melting point is reported as 127 to 129 °C.
Work on `CCSCC12CCC(=O)C=C1CCC1C3CC(C)C(=O)C3(C)CCC12` (stereo not drawn) yielded a melting point of 102 °C.
Work on `O=C(O)c1c2c(nc3ccc(Br)cc13)-c1ccc(-c3ccccc3F)cc1CCC2` yielded a melting point of over 300 °C.
Work on `CS(=O)(=O)Nc1cc2c(cc1Oc1ccccc1)C(=O)C(Br)(Br)CO2` yielded a melting point of 169 to 170 °C.
With `OC(CCc1ccc2ccccc2c1)c1cnc2sc3c(n12)CCCCC3` (stereo not drawn) the melting point was 124 to 127 °C.
Work on `CCOC(=O)C(=CNc1cccc(N2CCN(C)CC2)n1)C(=O)OCC` yielded a melting point of 114 to 115 °C.
In the case of `CC(C)CC(NC(=O)OCc1ccccc1)C(=O)NC(C#N)COCc1ccccc1` (stereo not drawn), the melting point is reported as 126 to 127 °C.
Work on `Nc1ncccc1OCc1c(F)ccc(F)c1F` yielded a melting point of 108 to 110 °C.
For `CCC(CC)Nc1c(N)cc(C)c(C)c1[N+](=O)[O-]`, the melting point was 80 to 82 °C.
`NS(=O)(=O)c1ncc2ccccn12` gave a melting point of 179 to 180 °C.
With `CCC(=O)N(C)c1cccc(-c2ccc3nncn3n2)c1` the melting point was 146 to 150 °C.
In the case of `Nc1cc(Cl)cc(C(=O)N[C@@H]2CN3CCC2CC3)c1OCc1cccc(I)c1`, the melting point is reported as 102 to 104 °C.
`CC(C)(C)c1cc(C(=O)NCc2ccc([N+](=O)[O-])cc2)cc(C(C)(C)C)c1O` gave a melting point of 230 to 231 °C.
Work on `CCC(CC)NC(=O)c1ccc(-c2scc(Br)c2CC(=O)OC)cc1` yielded a melting point of 97 to 98 °C.
Compound `Cc1noc(C)c1Cn1cc(NC(=O)[C@@H](C)c2ccccc2)cn1` has a melting point of 108 to 110 °C.
`Cc1[nH]c(=O)[nH]c(=O)c1[N+](=O)[O-]` gave a melting point of 281 °C.
With `COC(=O)N[C@@H](Cc1ccccc1)C(=O)CCl` the melting point was 121 to 122 °C.
`O=C1[C@H]2CCCC[C@H]2Nc2ccccc2N1Cc1ccccc1` (relative stereo) gave a melting point of 164 to 166 °C.
Compound `CN(C(=O)c1cc(-c2ccccc2)c2sccc2c1)c1ccccc1` has a melting point of 127 °C.
Work on `CCCCN(C)c1nsc(NC(=O)NC)c1C#N` yielded a melting point of 109 to 110 °C.
Compound `CCCCOCCOc1ccc(-c2ccc3c(c2)C=C(C(=O)OC)CCN3c2ccc(S(=O)(=O)N(C)C)cc2)cc1` has a melting point of 150 to 153 °C.
For `Nc1ccccc1-c1ccc(C(O)CCC(=O)O)cc1` (stereo not drawn), the melting point was 102 to 103 °C.
`CCCCNC(=O)C(=O)Nc1ccc(OC)cc1[N+](=O)[O-]` showed a melting point of 127 to 128 °C.
For `CS(=O)(=O)Nc1ccc(C(N)=O)cc1Oc1ccc(F)cc1F`, the melting point was 147 to 150 °C.
`Cn1cc(Br)nc(Nc2ccc(C(=O)N3CCOCC3)cc2)c1=O` showed a melting point of 276 to 277 °C.
With `CC(C)(C)OC(=O)N[C@@H](Cc1ccccc1)C(=O)NCCC(=O)OCc1ccccc1` the melting point was 93 to 96 °C.
In the case of `Cc1cc(SC2=C(O)CC(CCc3ccsc3CO)(C(C)C)OC2=O)c(C(C)(C)C)cc1CO` (stereo not drawn), the melting point is reported as 87 to 90 °C.
Compound `CCC1C(C)=NN=C(c2ccccc2Cl)c2cc(OC)c(OC)cc21` (stereo not drawn) has a melting point of 129 to 131 °C.
`CC(=O)OC1CSC(Oc2ccc(-c3cccnc3)nc2Cl)C(OC(C)=O)C1OC(C)=O` (stereo not drawn) gave a melting point of 155 °C.
For `COC(=O)c1ccc(-c2nc(NCc3ccc4c(c3)OCO4)c3c4c(sc3n2)CCCC4)cc1`, the melting point was 198 °C.
`CN(C)Cc1ccc(SC2CCN(C(=O)OCc3ccccc3)CC2)cc1` gave a melting point of 144 °C.
Compound `COc1cccc(CNC(=O)C(C)(C)COc2cccc3nc(C)c(C(=O)O)c(N)c23)c1` has a melting point of 172 to 174 °C.
`O=C1NC(=O)C(=Cc2cccc(OCc3ccccc3)c2)S1` showed a melting point of 233 to 235 °C.
With `Cc1cc(N)nc(CCc2nc3cc(-c4ccc(S(=O)(=O)N5CCCCC5)cc4)cnc3[nH]2)c1` the melting point was 233 °C.
`COC(=O)c1nc(-c2ccc(Cl)c(OC)c2F)cc(NC(C)=O)c1O` gave a melting point of 168 to 172 °C.
`CC(=O)NCC1CN(c2ccc(N3CCC(O)(C(C#N)C4CC4)CC3)c(F)c2)C(=O)O1` (stereo not drawn) gave a melting point of 170 to 172 °C.
Work on `O=C(O)CCC(O)c1ccc(CCNS(=O)(=O)c2ccc(Cl)cc2)cc1` (stereo not drawn) yielded a melting point of 191 °C.
Compound `CCOC(=O)CC(=O)c1cc(Cl)c(F)c(Cl)c1F` has a melting point of 133 °C.
Work on `CC(=O)NCCC1CCc2ccc(O)cc21` (stereo not drawn) yielded a melting point of 107 to 108 °C.
`CSc1ccc(CCCOCCCCCCNCC(O)c2ccc(O)c(F)c2)cc1` (stereo not drawn) gave a melting point of 66 to 67 °C.
For `O=S(=O)(Nc1c(Cl)ccc2cc(-c3ncc(CO)s3)[nH]c12)c1cccs1`, the melting point was 197 to 199 °C.
With `COc1ccc(C)cc1NC(=O)Nc1ccc(N2CCCN(C(=O)Nc3ccc(OCCO)cc3C(F)(F)F)CC2)cc1` the melting point was 118 to 120 °C.
For `O=C(Nc1ccc(F)cc1)NC1C(=O)N(CC(=O)N2CCCC2)c2ccccc2N(C2CCCCC2)C1=O` (stereo not drawn), the melting point was 181 to 183 °C.
`CC(C)C(C(=O)CCC(NC(=O)OCc1ccccc1)C(=O)OCc1ccccc1)C(=O)OC(C)(C)C` (stereo not drawn) showed a melting point of 69 to 71 °C.
For `O=P(O)(O)C(CCCc1ccc(-c2ccccc2)cc1)P(=O)(O)O`, the melting point was 199 to 200 °C.
For `Cc1c(Cl)c(Cl)c(Cl)c(Cl)c1CCl`, the melting point was 102 to 103 °C.
With `COc1cc2ccc(-c3ccccc3N)cc2cc1OC` the melting point was 215 to 217 °C.
Work on `O=[N+]([O-])c1c(Cl)cc(Cl)cc1-c1n[nH]cc1Cl` yielded a melting point of 173 °C.
`CCCCc1nc2c(N)nc3ccccc3c2n1CCS(C)(=O)=O` showed a melting point of 226 to 228 °C.
Compound `Cc1ccc(C2CCc3ccccc3O2)cc1` (stereo not drawn) has a melting point of 94 °C.
Compound `O=c1ccc(-c2ccc(Oc3ccc4c(c3)CCN(C3CCC3)CC4)nc2)n[nH]1` has a melting point of 215 to 220 °C.
With `CCOC(=O)N1CCN(c2ccc(C3=NNC(=O)CC3C)cc2[N+](=O)[O-])CC1` (stereo not drawn) the melting point was 140 to 142 °C.
Compound `CCCCCC(=O)c1ccc(C(=O)Nc2ccc3cc(CN4CCCC4)cnc3c2C)cc1` has a melting point of 175 °C.
Compound `CC(C(=O)c1ccc(F)cc1)N1CCC(O)(Cc2ccccc2)CC1` (stereo not drawn) has a melting point of 120 °C.
Compound `O=C1NC(=O)C(Cc2ccc(OCCN3CCOCC3)cc2)S1` (stereo not drawn) has a melting point of 188 to 189 °C.
In the case of `O=[N+]([O-])c1ccc(NCc2ccccc2)c([N+](=O)[O-])c1`, the melting point is reported as 106 °C.
For `CC1CC(=O)NN=C1c1ccc(Cl)c([N+](=O)[O-])c1` (stereo not drawn), the melting point was 186 to 188 °C.
Compound `CCOCc1nc2cnc3ccccc3c2n1CCC(C)C` has a melting point of 64 to 65 °C.
`O=C(c1cccs1)c1cnn2c(-c3cccc(-c4ccc(CN5CCOCC5)cc4)c3)ccnc12` showed a melting point of 175 to 178 °C.
Compound `COC(=O)c1ccc(OC(Cc2ccccc2)C(=O)OC)cc1` (stereo not drawn) has a melting point of 96 to 98 °C.
In the case of `CC(=O)NNc1nc(C(F)(F)F)nc(-c2ccc(S(C)(=O)=O)cc2)c1-c1ccccc1F`, the melting point is reported as 281 to 283 °C.
In the case of `CCCOc1ccc(S(=O)(=O)N2CCN(Cc3ccccc3)CC2)cc1-c1nc2cc(N)c([N+](=O)[O-])cc2c(=O)[nH]1`, the melting point is reported as 198 to 200 °C.
Work on `COc1ccc(OC)c(S(=O)(=O)Nc2ccccc2/C=C/c2ccncc2)c1` yielded a melting point of 193 to 195 °C.
For `CON(C)S(=O)(=O)c1ccccc1[N+](=O)[O-]`, the melting point was 105 to 106 °C.
Compound `CN1CCN(c2cccc(Nc3nc4c(-c5cnn(-c6ccc(F)cc6)c5)cccn4n3)c2)CC1` has a melting point of 216 to 218 °C.
In the case of `CC(=O)NC1CCc2c([nH]c3ccccc23)C1` (stereo not drawn), the melting point is reported as 203 to 206 °C.
Compound `COC(=O)[C@@H](C)NC(=O)CBr` has a melting point of 51 to 52 °C.
`C/C(C=O)=C\COc1cccc2ccccc12` gave a melting point of 81.5 to 82.5 °C.
With `CCOP(=O)(OCC)Oc1c(C2CCN(CCCCNC(=O)c3ccc(-c4ccc(C#N)cc4)cc3)CC2)ccc2c1CCCC2` the melting point was 90 °C.
Compound `COc1cc2ncnc(N3CCC(C(C)CN4CCCS4(=O)=O)CC3)c2cc1OC` (stereo not drawn) has a melting point of 129 to 131 °C.
`C=CCSc1cc(C(=O)O)cc(N)c1Oc1ccccc1` showed a melting point of 142 to 143 °C.
In the case of `CNC(=O)NC(=S)N1N=C(c2ccc([N+](=O)[O-])cc2)c2cc3c(cc2CC1C)OCO3` (stereo not drawn), the melting point is reported as 164 °C.
For `C/C(=C\C=C(c1ccccc1)c1ccccc1)C(=O)Oc1ccc([N+](=O)[O-])cc1`, the melting point was 139 to 141 °C.
In the case of `O=C(NC1(C(=O)O)CCCC1)C(CS)Cc1ccccc1` (stereo not drawn), the melting point is reported as 165 to 167 °C.
`O=S(=O)(CC1CCN(CCC2CCOc3ccccc32)CC1)Nc1ccccc1` (stereo not drawn) gave a melting point of 186 °C.
In the case of `CC1COc2cc(Oc3ccc(NC(=O)N(C)C)cn3)ccc21` (stereo not drawn), the melting point is reported as 153 to 154 °C.
For `NCCCNC(=O)c1ccc(-c2nn(-c3ccc(C(=O)O)cc3)c3ccccc23)cc1`, the melting point was 285 to 288 °C.
Compound `O=C(O)CCNC(=O)NCCCCC1CCSS1` (stereo not drawn) has a melting point of 108 to 110 °C.
Work on `COc1ccc(-c2csc(N)n2)cc1OC` yielded a melting point of 198 to 201 °C.
`CCc1cc2c3ccccc3c(C=O)cc2c2ccccc12` gave a melting point of 138 to 139 °C.
In the case of `CC(C)[C@H](NC(=O)OC(C)(C)C)[C@H]1CCn2c(c(C3=C(c4cn(-c5ccccc5)c5ccccc45)C(=O)NC3=O)c3ccccc32)C1`, the melting point is reported as 165 to 168 °C.
For `CCCCCCCCCCCCCCCCCC(=O)c1ccc(OC)c(C(=O)O)c1`, the melting point was 194 to 196 °C.
Work on `CC=C1CCC(C(=O)OC)C(C(=O)OC)C1` (stereo not drawn) yielded a melting point of 162 to 163 °C.
`CC=CCNc1cc(C(=O)O)cc(S(N)(=O)=O)c1Nc1ccc(NC(C)=O)cc1` showed a melting point of 230 °C.
For `CN1CCN(C2=Nc3cc(C(F)(F)F)ccc3Nc3cscc32)CC1`, the melting point was 202 °C.
With `COC(=O)c1ccc(Cc2c(Cl)n(C)c3cc(Cl)c(CC(C)NC(=O)N(C)C)cc23)c(OC)c1` (stereo not drawn) the melting point was 175 to 176 °C.
With `CCCc1c(OCCCCCCc2cccc(OCCCCCCC(=O)O)c2CCC(=O)O)ccc2c1OCCC2=O` the melting point was 91 to 93 °C.
For `COC(=O)CC(O)CC(O)CCc1c(-c2ccc(F)cc2)c(-c2ccccc2)c(C(=O)Nc2ccc(C(=O)OC)cn2)n1C(C)C` (stereo not drawn), the melting point was 71 to 75 °C.
Work on `O=[N+]([O-])c1ccc(Cl)c(N=C2NCCCN2)c1` yielded a melting point of 189 to 191 °C.
For `CC(=O)c1c(C)[nH]c(Cc2ccccc2)c1C`, the melting point was 166 to 167 °C.
Compound `N#Cc1ncn2c(C(F)(F)F)cc(-c3ccccc3)nc12` has a melting point of 202 °C.
In the case of `COC(=O)C1COc2ccc(S)cc2C1` (stereo not drawn), the melting point is reported as 83 to 84 °C.
`COc1cc(Cc2cnc(N)nc2N)c2c(c1OC)OCC=C2` gave a melting point of 232 to 234 °C.
For `CC(C)(C(=O)O)c1nc2ccc(OCCCN3CCN(C(c4ccccc4)c4ccccc4)CC3)nn2c1Cl`, the melting point was 118 to 121 °C.
For `Cc1cc(-c2cccc(C(F)(F)F)c2)n2ncc(C(=O)c3ccccc3)c2n1`, the melting point was 153 to 154 °C.
Compound `Cc1c(O[Si](C)(C)C(C)(C)C)cc(O[Si](C)(C)C(C)(C)C)c(C)c1C(=O)OCc1ccc([N+](=O)[O-])cc1` has a melting point of 121 to 122 °C.
With `[N-]=[N+]=C1C(=O)Nc2cccc(Cl)c21` the melting point was 214 to 215 °C.
For `O=C(Cc1ccccc1C(=O)O)Nc1cccc(/C=C/c2nc(C3CCCCCC3)cs2)c1`, the melting point was 189 to 190 °C.
